Legend:
[1] = test system: gram-positive bacterial strains; test: In vitro uptake of [^18F]FDS by bacterial strains; format: cell-based; settings: gram-positive bacterial strains (FIG. 3)
Protocol: (§1) The present inventors performed in vitro experiments on the strain cultured in Example 2 above. Specifically, each strain was prepared to be 1×10^8 per 1 mL of medium, and 1 mL was dispensed into tubes. The experiments were performed three times according to the experimental period, and 0.74 MBq of [^18F]FDS synthesized as described above was injected and incubated for 2 hours in the incubator. After 2 hours, each strain was divided into a filterable 1.5 mL centrifuge tube, and the fungi and medium were separated through centrifugation. After washing twice with phosphate buffer, the filtered fungi were collected and the intake was measured with a gamma counter.
(§2) The present inventors confirmed the uptake ability of [^18F]FDS of the present invention using fungal strain cultivation.

[2] = test system: gram-negative bacterial strains; test: In vitro uptake of [^18F]FDS by bacterial strains; format: cell-based; settings: gram-negative bacterial strains (FIG. 3)
Protocol: as §1, §2

A. fumigatus = test: In vitro uptake of [^18F]FDS by cultured strains (gamma counter); format: cell-based, Aspergillus fumigatus; settings: 1×10^8 per mL, 0.74 MBq, incubated 2 hours (FIG. 3)
Protocol: (§3) The present inventors cultured the fungus using the following method. Specifically, Aspergillus fumigatus was smeared on potato dextrose agar medium (or YAG, yeast extract agar medium), and cultured at 30° C. for 2-3 days. Thereafter, the culture plate was washed with sterile physiological saline and Tween 20 [10 μl (1 drop)] and filtered with sterile gauze (or 40 μm-pore insertion filter). Then, the pellet was recovered using a centrifuge and the number of fungi was confirmed to prepare a bacterial solution of 1.5×10^9 conida/mL. Rhizopus arrhizus isolated from the patient was also cultured in the same way as A. fumigatus, prepared a fungal solution, and used for in vitro experiments. For Candida albicans, a strain isolated from the patient was also used, and cultured in SDA medium for 2-3 days. After recovering from the medium, a fungal solution was prepared.
as §1, with “After 2 hours, each strain was divided into a filterable 1.5 mL centrifuge tube, and the fungi and medium were separated through centrifugation.” left out, “counter. […]” for “counter.”

[3] = test system: A. fumigatus lung infection; test: microPET imaging in A. fumigatus lung infection small animal model; format: in vivo; settings: Balb/c mice infected with A. fumigatus in the lung; 7.4 MBq tail vein; image 2 hours after injection (FIG. 4)
Protocol: (§4) The present inventors created a lung infection model by the following method. First, after preparing Balb/c mice 8 weeks old (female), 150 mg/kg 100 μl of cyclophosphamide was intraperitoneally injected 4 days before infection. After 3 days, 100 μl of 250 mg/kg of cortisone acetate was injected into the subcutaneous fat layer, and the mice were anesthetized after 24 hours. And then the lung infection model mice were prepared by the injection of 70 μl of A. fumigatus fungal solution (about 1.5×10^7 conidia) through the nasal cavity.
(§5) The present inventors acquired microPET images 2 hours after injecting the [^18F]FDS (7.4 MBq) according to the present invention into the tail vein of the infected mice, and the acquired images were reconstructed by using the 3D-ordered subset expectation maximization (3D-OSEM) method.
The present inventors confirmed the fungal selective uptake ability of [^18F]FDS of the present invention using small animal infection models. To this end, [^18F]FDS was administered intravenously to Balb/c mice infected with A. fumigatus in the lung prepared in Example 4, and microPET images were acquired and analyzed.

fungi = test: In vitro uptake of [^18F]FDS, fungi compared with bacteria; format: cell-based; settings: in vitro experiment; fungi vs bacteria
Protocol: as §1

Rhizopus sp. = test: In vitro uptake of [^18F]FDS by cultured strains (gamma counter); format: cell-based, Rhizopus arrhizus; settings: 1×10^8 per mL, 0.74 MBq, incubated 2 hours (FIG. 3)
Protocol: as §3
as §1, with “After 2 hours, each strain was divided into a filterable 1.5 mL centrifuge tube, and the fungi and medium were separated through centrifugation.” left out, “counter. […]” for “counter.”

C. albicans = test: as above; format: cell-based, Candida albicans; settings: 1×10^8 per mL, 0.74 MBq, incubated 2 hours (FIG. 3)
Protocol: as §3
as §1, with “After 2 hours, each strain was divided into a filterable 1.5 mL centrifuge tube, and the fungi and medium were separated through centrifugation.” left out, “counter. […]” for “counter.”

[4] = test system: A. fumigatus muscle infection; test: microPET imaging in A. fumigatus muscle infection small animal model; format: in vivo; settings: Balb/c mice, A. fumigatus forelimb muscle infection; 7.4 MBq tail vein; image 2 hours after injection; compared to the control group (FIGS. 5-7)
Protocol: as §4, with “produced” for “created”, “muscle” for “lung”, “100” for “70”, “1.5×10^8” for “1.5×10^7”, “into” for “through”, “forelimb muscle of the mice.” for “nasal cavity.”
as §5

OC[C@@H](O)[C@@H](O)[C@H](O)[C@@H]([18F])CO [[^18F]FDS, 2-deoxy-2-[^18F]fluorosorbitol]
uptake of [^18F]FDS [1]: did not show no uptake
uptake of [^18F]FDS [2]: showed uptake
uptake of [^18F]FDS (A. fumigatus): very high selective uptake
uptake of [^18F]FDS in the lungs (microPET) [3]: very high selective uptake
degree of uptake of [^18F]FDS by fungi relative to bacterial uptake (fungi): more than 10 times
uptake of [^18F]FDS (Rhizopus sp.): very high selective uptake
uptake of [^18F]FDS (C. albicans): very high selective uptake
uptake of [^18F]FDS at the muscle infection site (microPET) [4]: very high selective uptake

Reference: patent US20220016273A1, “COMPOSITION FOR DIAGNOSIS OF FUNGAL INFECTION” (CNCURE BIOTECH INC., priority 2019, published 2022)
